# Results reported in patent US9790503B2, “VHZ for diagnosis and treatment of cancer” (AGENCY FOR SCIENCE, TECHNOLOGY AND RESEARCH (A*STAR), priority 2007, dated 2017).
# Target: T1, VHZ-GST (Homo sapiens, UniProt Q9BVJ7)
# T1 construct: made in house
# T1 sequence (Q9BVJ7 1-150): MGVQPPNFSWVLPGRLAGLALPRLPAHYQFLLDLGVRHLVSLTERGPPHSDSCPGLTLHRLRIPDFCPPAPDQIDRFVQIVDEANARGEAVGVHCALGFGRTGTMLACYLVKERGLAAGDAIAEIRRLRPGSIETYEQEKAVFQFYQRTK
# Test: Tyrosine phosphatase assay (EnzChek kit, fluorogenic substrate)
# Assay type: biochemical
# Details: 10 μM sodium orthovanadate added to the reaction; VHZ-GST 0.675 picomoles; fluorescence excitation/emission 358/452 nm
# Procedure: The EnzChek kit (Invitrogen, R22065) is used. As per the manufacturer's protocol, the fluorogenic substrate is reconstituted in the assay wells with buffer; the desired potential PTPases (0.675 picomole for each protein: VHZ-GST, VHZ-GST+Phosphatase inhibitor, VHZ(C95S)-GST, and control GST) are added to the wells and incubated 30 min or 90 min respectively. The fluorescence is then quantified using a Gemini XPS microplate spectrofluorometer (Molecular Devices). Fluorescence is measured at 10 minute intervals at the excitation and emission wavelengths of 358 and 452 nm, respectively. The phosphatase inhibitor sodium orthovanadate (10 μM) is used in the assay as a negative control.
smiles,measurement,value
[Na+].[Na+].[Na+].[O]=[V]([O-])([O-])[O-] [sodium orthovanadate],PTPase activity of VHZ,completely abolished
